Data: patent publication US8097708B2, “10a-Azalide compound” (Taisho Pharmaceutical Co., Ltd., priority 2006, dated 2012)
Values after ≈ are worked out from the molar mass of the structure shown.

How the values were obtained:
Assay in all cases: In vitro antibacterial activity, microbroth dilution method (NCCLS method)
Type in all cases: cell-based
S. pneumoniae 205 = conditions: Streptococcus pneumoniae; bacteria symbol C = S. pneumoniae 205; read-out: MIC values (minimum inhibitory concentration)
Procedure: (§1) In vitro antibacterial activities of the compounds of the present invention against various test bacteria were measured according to the microbroth dilution method (NCCLS method). As test compounds, the compounds of Examples 7, 23, 114, 126, 131, 210, 214, 231, 257, 261, 287, 363, 366, 563 and Comparative agent 1: clarithromycin were used. The results are shown as MIC values (minimum inhibitory concentration, μg/ml) in Table 21.

S. pneumoniae ATCC 49619 = conditions: Streptococcus pneumoniae, ATCC49619; bacteria symbol B = S. pneumoniae ATCC 49619; read-out: MIC values (minimum inhibitory concentration)
Procedure: as §1

H. influenzae ATCC 43095 = conditions: Haemophilus influenzae, ATCC43095; bacteria symbol A = H. influenzae ATCC 43095; read-out: MIC values (minimum inhibitory concentration)
Procedure: as §1

CO[C@]1(C)C[C@H](O[C@H]2[C@H](C)[C@@H](O[C@@H]3O[C@H](C)C[C@H](N(C)C)[C@H]3O)[C@@](C)(OC)C[C@@H](C)[C@H](O)[C@H](C)N(C)C(C)C(C)OC(=O)[C@@H]2C)O[C@@H](C)[C@@H]1O (stereo partly drawn) [Example 261]
MIC (S. pneumoniae 205): 64 µg/mL (≈ 89 µM)
MIC (S. pneumoniae ATCC 49619): 0.12 µg/mL (≈ 0.167 µM)
MIC (H. influenzae ATCC 43095): 4 µg/mL (≈ 5.56 µM)

CC[C@H]1OC(=O)[C@H](C)[C@@H](O[C@H]2C[C@@](C)(OC)[C@@H](O)[C@H](C)O2)[C@H](C)[C@@H](O[C@@H]2O[C@H](C)C[C@H](N(C)C)[C@H]2O)[C@](C)(OC)C[C@@H](C)C(=O)[C@H](C)[C@@H](O)[C@]1(C)O [Comparative agent 1, clarithromycin]
MIC (S. pneumoniae 205): > 128 µg/mL
MIC (S. pneumoniae ATCC 49619): 0.03 µg/mL (≈ 0.0401 µM)
MIC (H. influenzae ATCC 43095): 4 µg/mL (≈ 5.35 µM)
